Assay results: patent US20110070232A1, “Combination Therapy with an Antitumor Alkaloid” (Pharma Mar, S.A., priority 2008, published 2011)
pIC50: −log10 of the molar value. ≈ marks a conversion by molar mass, not a printed value. Where two headings read alike, the source gives them in different places.

Columns and labels:
[1] = tested on: Hs746T tumors; type: in vivo, mice; details: for % Inhibition: PM00104 0.9 and doxorubicin 6 mg/kg/day
Source text: Female athymic nude mice (Harlan Sprague Dawley, Madison, Wis.) were utilized for all experiments. Animals were housed in ventilated rack caging with food and water ad libitum. The mice were acclimated for at least 5 days prior to tumor implantation with a tumor cell suspension.
The tumor model used in these studies was Hs746T cell line, which was obtained from the ATCC (Manassas, Va.).
Treatments were initiated on DPI 15.
5-FU was provided as a solution which was further diluted with water for injection.
(§1) Tumor size measurements were recorded twice weekly from the treatment initiation until the termination of the study.
(§2) Mean, standard deviation and standard error of the mean were determined for tumor volume for all animal groups at all assessments. Student's t test was performed on tumor volumes at each measurement day, including at the end of the study, to determine whether there were any statistically significant differences between combination treatment groups and single monotherapy treatment groups.

[2] = tested on: MCF-7 (breast cancer) cell line; experiment: IC50 determination, MIT (tetrazolium) assay, 72 h (Example 18); type: cell-based; details: Homo sapiens, MCF7; MCF-7, 72 hours of drug exposure
Method: (§3) Before plating, cell cultures were trypsinized and cell number estimated using an automated flow cytometer.
(§4) Cells were harvested and seeded in 96 well microtiter plates at the appropriate cell density (5,000-10,000 cells) in 150 μL of media and incubated for 24 hours to allow the cells to attach before drug addition.
(§5) After the incubation period (72 hours), 50 μL of MIT solution was added to each microtiter well and incubated for further 8 hours at 37° C. The culture medium was then removed and 50 μl, of DMSO were added to dissolve the MIT crystals. Optical densities were read at 540 nm on spectrophotometer microplate reader.
(§6) IC50 values were calculated from an average of two to four assays for each of the test agents.

[3] = tested on: MDA-MB-231 (breast cancer) cell line; experiment: as above; type: cell-based; details: Homo sapiens; MDA-MB-231, 72 hours of drug exposure
Method: as §3, §4, §5, §6

[4] = tested on: Hs746T human gastric carcinoma cell line; experiment: IC50 determination, MTS assay, 72 h (Example 1); type: cell-based; details: Homo sapiens, 72 hours of drug exposure, read-out: IC50
Method: (§7) The human gastric carcinoma cell lines selected for this assay were the following: Hs746T, HGC-27, and AGS cell lines. Hs746T and AGS cell lines were grown in Dulbecco's modified Eagle's medium (DMEM) supplemented with 10% Fetal Bovine Serum (FBS), 1.5 g/L sodium bicarbonate, 4.5 g/L glucose and 4 mM L-glutamine. HGC-27 cell line was grown in Iscove's modified Dulbecco's medium (IMDM) supplemented with 20% FBS and 2 mM L-glutamine.
(§8) The day before plating, the cells were fed with fresh, complete growth media. On the harvest (plating) day, cells were counted by Trypan Blue exclusion staining method.
(§9) Cells were harvested and seeded in 96 well microtiter plates at 10,000 cells density in 150 μL of media and incubated for 24 hours to allow the cells to attach before drug addition. To collect reference data, the MTS assay was done on untreated cells at time 0 (after incubation of cells for 24 hours).
(§10) The cytotoxic effect was measured by the MTS Assay (Tetrazolium), which is a colorimetric method for determining the number of viable cells. After the incubation period (24 hours for the Day 0 plate and 72 hours for the Test and Control plates), 25 μL of MTS+PMS solution was added to each microtiter well and incubated for 4 hours at 37° C. Plates were then removed from incubator and placed on plate shaker for 5 minutes (covered with aluminum foil for protection from light). Optical densities were read at 490 nm on spectrophotometer plate reader.
as §6

[5] = tested on: AGS human gastric carcinoma cell line; experiment: IC50 determination, MTS assay, 72 h (Example 1); type: cell-based; details: Homo sapiens, 72 hours of drug exposure, read-out: IC50
Method: as §7, §8, §9, §10, §6

[6] = tested on: HGC-27 human gastric carcinoma cell line; experiment: IC50 determination, MTS assay, 72 h (Example 1); type: cell-based; details: Homo sapiens, 72 hours of drug exposure, read-out: IC50
Method: as §7, §8, §9, §10, §6

[7] = tested on: MRI-H-254 tumors; type: in vivo, mice
Method: Female athymic nude mice (Harlan Sprague Dawley, Madison, Wis.) were utilized for all experiments. Animals were housed in ventilated rack caging with food and water ad libitum. The mice were acclimated for at least 5 days prior to tumor implantation with tumor fragments. The Vehicle Control group contained 11 mice, groups 2-6 contained 8 mice/group, and the rest of groups contained 9 mice/group.
This cell line was grown and implanted to the animals as described in Example 11.
Tumor measurements were determined as disclosed in Example 4. […] Treatments were initiated on DPI 17.
PM00104 was provided in the form of vials of lyophilized PM00104 powder which was reconstituted with water for injection.
as §1, §2
The definition and criteria for the evaluation of potentiation and the degree of additivity for the combination therapy were the same as those disclose in Example 4.

[8] = PM00104 0.9, 5-FU 50 (DPI 15) then 100 (DPI 22 & 29), irinotecan 20, doxorubicin 6 mg/kg/day
[9] = PM00104 0.90 IV, doxorubicin 6 IP, paclitaxel 12.5 IP mg/kg/day (G2, G5, G6, G7, G8)

SMILES: COc1cccc2c1C(=O)c1c(O)c3c(c(O)c1C2=O)C[C@@](O)(C(=O)CO)C[C@@H]3O[C@H]1C[C@H](N)[C@H](O)[C@H](C)O1 [Doxorubicin, doxorubicin]
- % T/C on day 15 [1, 8]: 104.2%
- % T/C on day 19 [1, 8]: 79.8%
- % T/C on day 26 [1, 8]: 48.9%
- % T/C on day 29 [1, 8]: 40.2%
- % T/C on day 33 [1, 8]: 51.4%
- % Inhibition ([1]; day 15): −4.2%
- % Inhibition ([1]; day 19): 20.2%
- % Inhibition ([1]; day 22): 52.6%
- % Inhibition ([1]; day 26): 51.1%
- % Inhibition ([1]; day 29): 59.8%
- % Inhibition ([1]; day 33): 48.6%
- pIC50 [2]: 5.40
- pIC50 [3]: 5.72
- IC50 [4]: 8.97 mg/L (≈ 16.5 µM)
- IC50 [5]: 0.156 mg/L (≈ 0.287 µM)
- IC50 [6]: 0.177 mg/L (≈ 0.326 µM)
- % T/C on day 17 [7, 9]: 98.2%
- % T/C on day 20 [7, 9]: 93.5%
- % T/C on day 24 [7, 9]: 76.2%
- % T/C on day 27 [7, 9]: 64.4%
- % T/C on day 32 [7, 9]: 56.3%
- % T/C on day 35 [7, 9]: 24.8%
- % T/C on day 39 [7, 9]: 19.7%
- % T/C on day 47 [7, 9]: 15.7%
- % Inhibition ([7]; day 14, PM00104 0.23, doxorubicin 6, paclitaxel 12.5 mg/kg/day): 1.8%
- % Inhibition ([7]; day 14, PM00104 0.45, doxorubicin 6, paclitaxel 12.5 mg/kg/day): 1.8%
- % Inhibition ([7]; day 14, PM00104 0.9 and doxorubicin 6 mg/kg/day): 1.8%
- % Inhibition ([7]; day 20, PM00104 0.23, doxorubicin 6, paclitaxel 12.5 mg/kg/day): 6.5%
- % Inhibition ([7]; day 20, PM00104 0.45, doxorubicin 6, paclitaxel 12.5 mg/kg/day): 6.5%
- % Inhibition ([7]; day 20, PM00104 0.9 and doxorubicin 6 mg/kg/day): 6.5%
- % Inhibition ([7]; day 24, PM00104 0.23, doxorubicin 6, paclitaxel 12.5 mg/kg/day): 23.8%
- % Inhibition ([7]; day 24, PM00104 0.45, doxorubicin 6, paclitaxel 12.5 mg/kg/day): 23.8%
- % Inhibition ([7]; day 24, PM00104 0.9 and doxorubicin 6 mg/kg/day): 23.8%
- % Inhibition ([7]; day 27, PM00104 0.23, doxorubicin 6, paclitaxel 12.5 mg/kg/day): 35.6%
- % Inhibition ([7]; day 27, PM00104 0.45, doxorubicin 6, paclitaxel 12.5 mg/kg/day): 35.6%
- % Inhibition ([7]; day 27, PM00104 0.9 and doxorubicin 6 mg/kg/day): 35.6%
- % Inhibition ([7]; day 32, PM00104 0.23, doxorubicin 6, paclitaxel 12.5 mg/kg/day): 43.7%
- % Inhibition ([7]; day 32, PM00104 0.45, doxorubicin 6, paclitaxel 12.5 mg/kg/day): 43.7%
- % Inhibition ([7]; day 32, PM00104 0.9 and doxorubicin 6 mg/kg/day): 43.7%
- % Inhibition ([7]; day 35, PM00104 0.23, doxorubicin 6, paclitaxel 12.5 mg/kg/day): 75.2%
- % Inhibition ([7]; day 35, PM00104 0.45, doxorubicin 6, paclitaxel 12.5 mg/kg/day): 75.2%
- % Inhibition ([7]; day 35, PM00104 0.9 and doxorubicin 6 mg/kg/day): 75.2%
- % Inhibition ([7]; day 39, PM00104 0.23, doxorubicin 6, paclitaxel 12.5 mg/kg/day): 80.3%
- % Inhibition ([7]; day 39, PM00104 0.45, doxorubicin 6, paclitaxel 12.5 mg/kg/day): 80.3%
- % Inhibition ([7]; day 39, PM00104 0.9 and doxorubicin 6 mg/kg/day): 80.3%
- % Inhibition ([7]; day 47, PM00104 0.23, doxorubicin 6, paclitaxel 12.5 mg/kg/day): 84.3%
- % Inhibition ([7]; day 47, PM00104 0.9 and doxorubicin 6 mg/kg/day): 84.3%
